The record followed here is patent US20080021026A1, “BENZOTHIOPHENE INHIBITORS OF RHO KINASE” (priority 2006, published 2008).

For assay [1], the target named is T1, recombinant N-terminal GST-tagged human Rho kinase 1 (ROCK1, amino acids 1-535) (Homo sapiens, UniProt Q13464).
T1 construct: ROCK1, amino acids 1-535; purchased Invitrogen Inc. PV-3691
Briefly: In vitro Rho kinase assay (luciferase-based ATP consumption), ROCK1. It counts as biochemical. A digest of the protocol:
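GST-ROCK1 (aa 1-535) at 0.82 μg/ml with 100 μg/ml S6 peptide and 3 µM ATP in Tris pH 7.5 buffer with MgCl2, CaCl2, EGTA, BSA; compound added after reaction start, 2 h at 30 °C. Remaining ATP read by luciferase luminescence; efficacy as percent of H-1152P positive control.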

The target in assay [2] is T2, recombinant N-terminal GST-tagged human Rho kinase 2 (ROCK2, amino acids 1-552) (Homo sapiens, UniProt O75116).
T2 construct: ROCK2, amino acids 1-552; purchased Invitrogen Inc. PV3759
Briefly: In vitro Rho kinase assay (luciferase-based ATP consumption), ROCK2. It is filed as biochemical. A digest of the protocol: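 GST-ROCK2 (aa 1-552, 0.82 μg/ml) with 100 μg/ml S6 peptide and 3 µM ATP in Tris pH 7.5 buffer with MgCl2/CaCl2/EGTA/BSA, compound added just after reaction start, 2 h at 30 °C. Remaining ATP read by luciferase luminescence. Efficacy expressed as percentage of H-1152P positive control.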

The mark [3] stands for this setting: recombinant GST-tagged human ROCK1, luciferase-based ATP consumption, read-out: ROCK1 IC50.
[4] abbreviates: recombinant GST-tagged human ROCK2, luciferase-based ATP consumption, read-out: ROCK2 IC50.

What is called IC50 is the midpoint of a concentration-inhibition curve.

Read-outs that look alike come from different tables or passages of the source.

T2 sequence (O75116 1-552): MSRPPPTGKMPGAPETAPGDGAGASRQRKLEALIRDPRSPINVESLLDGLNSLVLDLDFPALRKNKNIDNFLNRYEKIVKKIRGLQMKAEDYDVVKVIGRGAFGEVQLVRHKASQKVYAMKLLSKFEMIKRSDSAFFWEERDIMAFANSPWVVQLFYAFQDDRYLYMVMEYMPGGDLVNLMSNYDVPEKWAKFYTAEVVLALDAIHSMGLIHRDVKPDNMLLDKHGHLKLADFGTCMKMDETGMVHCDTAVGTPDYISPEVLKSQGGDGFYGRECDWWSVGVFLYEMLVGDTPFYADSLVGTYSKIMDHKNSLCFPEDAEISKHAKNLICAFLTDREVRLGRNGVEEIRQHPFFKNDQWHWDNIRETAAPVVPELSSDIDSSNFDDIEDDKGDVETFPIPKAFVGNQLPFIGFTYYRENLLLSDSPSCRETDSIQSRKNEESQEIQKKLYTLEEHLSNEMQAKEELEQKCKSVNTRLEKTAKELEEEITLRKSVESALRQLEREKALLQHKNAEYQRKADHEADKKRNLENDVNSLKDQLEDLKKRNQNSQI
T1 sequence (Q13464 1-535): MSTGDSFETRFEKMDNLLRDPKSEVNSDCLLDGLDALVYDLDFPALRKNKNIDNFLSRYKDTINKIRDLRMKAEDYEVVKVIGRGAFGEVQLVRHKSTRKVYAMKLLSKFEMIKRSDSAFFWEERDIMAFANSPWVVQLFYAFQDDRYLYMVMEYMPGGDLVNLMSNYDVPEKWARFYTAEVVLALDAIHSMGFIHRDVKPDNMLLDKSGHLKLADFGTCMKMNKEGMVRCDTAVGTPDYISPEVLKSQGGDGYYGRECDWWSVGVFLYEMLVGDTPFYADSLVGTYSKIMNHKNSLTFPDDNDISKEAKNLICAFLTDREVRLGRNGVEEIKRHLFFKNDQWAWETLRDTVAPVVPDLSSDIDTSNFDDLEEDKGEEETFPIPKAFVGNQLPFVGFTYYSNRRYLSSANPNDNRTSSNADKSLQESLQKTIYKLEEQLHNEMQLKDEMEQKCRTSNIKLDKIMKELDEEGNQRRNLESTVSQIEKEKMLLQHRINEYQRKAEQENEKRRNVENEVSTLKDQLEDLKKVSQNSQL

Take `COc1cc(C=CC(=O)NCc2ccc3sc(-c4ccnc(N)n4)c(C)c3c2)ccc1O` [Example 255, COc1cc(C═CC(═O)NCc2ccc3sc(c(C)c3c2)-c4ccnc(N)n4)ccc1O]: the IC50 in assay [1] (setting [3]) and in assay [2] (setting [4]) was < 5 µM in each case.

For `CCCOc1ccc(C(=O)NCc2ccc3sc(-c4ccnc(N)n4)c(C)c3c2)cc1` [Example 213, CCCOc1ccc(cc1)C(═O)NCc2ccc3sc(c(C)c3c2)-c4ccnc(N)n4], the IC50 is < 5 µM in assay [1] (setting [3]) and > 5 µM in assay [2] (setting [4]).

For the molecule `Cc1c(-c2ccnc(N)n2)sc2ccc(CNC(=O)c3cc4cc(Cl)ccc4o3)cc12` [Example 258, Cc1c(sc2ccc(CNC(═O)c3cc4cc(Cl)ccc4o3)cc12)-c5ccnc(N)n5], the IC50 in assay [1] (setting [3]) and in assay [2] (setting [4]) was < 5 µM in each case.

As to `Cc1c(-c2ccnc(N)n2)sc2ccc(CNC(=O)C3CC(O)CN3C(=O)OC(C)(C)C)cc12` (centres unmarked) [Example 311, Cc1c(sc2ccc(CNC(═O)[C]3CC(O)CN3C(═O)OC(C)(C)C)cc12)-c4ccnc(N)n4], the IC50 in assay [1] (setting [3]) and in assay [2] (setting [4]) was > 5 µM in each case.

As for `Cc1c(-c2ccnc(N)n2)sc2ccc(CNC(=O)c3cc([N+](=O)[O-])ccc3F)cc12` [Example 229, Cc1c(sc2ccc(CNC(═O)c3cc(ccc3F)[N+]([O−])═O)cc12)-c4ccnc(N)n4], the half-inhibitory concentration (IC50) in assay [1] (setting [3]) and in assay [2] (setting [4]) was < 5 µM each time.

Regarding `COc1ccc([N+](=O)[O-])c(C(=O)NCc2ccc3sc(-c4ccnc(N)n4)c(C)c3c2)c1` [Example 259, COc1ccc(c(c1)C(═O)NCc2ccc3sc(c(C)c3c2)-c4ccnc(N)n4)[N+]([O−])═O], the IC50 in assay [1] (setting [3]) and in assay [2] (setting [4]) was < 5 µM in each case.

In the case of `Cc1c(-c2ccnc(N)n2)sc2ccc(Cc3cccc(C(=O)NCCCN4CCOCC4)c3)cc12` [Example 49, 3-((2-(2-Aminopyrimidin-4-yl)-3-methylbenzo[b]thiophen-5-yl)methyl)-N-(3-morpholinopropyl)benzamide], the IC50 in assay [1] (setting [3]) and in assay [2] (setting [4]) was < 5 µM throughout.

Take `CC(=O)Nc1cccc(C(=O)NCc2ccc3sc(-c4ccnc(N)n4)c(C)c3c2)c1` [Example 206, CC(═O)Nc1cccc(c1)C(═O)NCc2ccc3sc(c(C)c3c2)-c4ccnc(N)n4]: the IC50 in assay [1] (setting [3]) and in assay [2] (setting [4]) was < 5 µM throughout.

With `Cc1c(-c2ccnc(N)n2)sc2ccc(CNC(=O)c3ccc(Cl)cc3Cl)cc12` [Example 246, Cc1c(sc2ccc(CNC(═O)c3ccc(Cl)cc3Cl)cc12)-c4ccnc(N)n4], the IC50 in assay [1] (ROCK1 IC50, recombinant GST-tagged human ROCK1, luciferase-based ATP consumption) is < 5 µM; in assay [2] (ROCK2 IC50, recombinant GST-tagged human ROCK2, luciferase-based ATP consumption) it was < 5 µM.

For `COc1nccc(Nc2ccc3sc(-c4ccnc(N)n4)c(C)c3c2)n1` [Example 74, 4-(5-(2-Methoxypyrimidin-4-ylamino)-3-methylbenzo[b]thiophen-2-yl)pyrimidin-2-amine], the IC50 in assay [1] (setting [3]) and in assay [2] (setting [4]) was < 5 µM throughout.

Consider `Cc1c(-c2ccnc(N)n2)sc2ccc(CNC(=O)c3cccc([N+](=O)[O-])c3)cc12` [Example 180, Cc1c(sc2ccc(CNC(═O)c3cccc(c3)[N+]([O−])═O)cc12)-c4ccnc(N)n4], for which the half-inhibitory concentration (IC50) in assay [1] (setting [3]) and in assay [2] (setting [4]) was < 5 µM throughout.

In the case of `Cc1c(-c2ccnc(N)n2)sc2ccc(CNC(=O)Cc3ccc(Br)cc3)cc12` [Example 288, Cc1c(sc2ccc(CNC(═O)Cc3ccc(Br)cc3)cc12)-c4ccnc(N)n4], the IC50 in assay [1] (setting [3]) and in assay [2] (setting [4]) was < 5 µM throughout.

For the molecule `Cc1cccc(CCC(=O)NCc2ccc3sc(-c4ccnc(N)n4)c(C)c3c2)c1` [Example 168, Cc1cccc(CCC(═O)NCc2ccc3sc(c(C)c3c2)-c4ccnc(N)n4)c1], the IC50 in assay [1] (setting [3]) and in assay [2] (setting [4]) was < 5 µM each time.

For `COc1cc(OC)c(C(=O)NCc2ccc3sc(-c4ccnc(N)n4)c(C)c3c2)cc1OC` [Example 278, COc1cc(OC)c(cc1OC)C(═O)NCc2ccc3sc(c(C)c3c2)-c4ccnc(N)n4], the IC50 in assay [1] (setting [3]) and in assay [2] (setting [4]) was < 5 µM in each case.

Take `Cc1c(-c2ccnc(N)n2)sc2ccc(Cc3cccc(C(=O)Nc4ccc(OCCN5CCCCC5)cc4)c3)cc12` [Example 44, 3-((2-(2-Aminopyrimidin-4-yl)-3-methylbenzo[b]thiophen-5-yl)methyl)-N-(4-(2-(piperidin-1-yl)ethoxy)phenyl)benzamide]: the IC50 in assay [1] (setting [3]) and in assay [2] (setting [4]) was < 5 µM each time.

As to `Cc1c(-c2ccnc(N)n2)sc2ccc(CNC(=O)Cc3ccccc3O)cc12` [Example 35, N-((2-(2-Aminopyrimidin-4-yl)-3-methylbenzo[b]thiophen-5-yl)methyl)-2-(2-hydroxyphenyl)acetamide], the IC50 in assay [1] (setting [3]) and in assay [2] (setting [4]) was < 5 µM throughout.

For the molecule `Cc1c(-c2ccnc(N)n2)sc2ccc(CNC(=O)C=O)cc12` [Example 96, Cc1c(sc2ccc(CNC(═O)C═O)cc12)-c3ccnc(N)n3], the IC50 in assay [1] (setting [3]) and in assay [2] (setting [4]) was > 5 µM throughout.

For `Cc1c(-c2ccnc(N)n2)sc2ccc(CNC(=O)Cc3ccc(O)c(Cl)c3)cc12` [Example 234, Cc1c(sc2ccc(CNC(═O)Cc3ccc(O)c(Cl)c3)cc12)-c4ccnc(N)n4], the IC50 in assay [1] (setting [3]) and in assay [2] (setting [4]) was < 5 µM each time.

As for `Cc1ccccc1C(=O)NCc1ccc2sc(-c3ccnc(N)n3)c(C)c2c1` [Example 119, Cc1ccccc1C(═O)NCc2ccc3sc(c(C)c3c2)-c4ccnc(N)n4], the IC50 in assay [1] (setting [3]) was > 5 µM; in assay [2] (setting [4]), < 5 µM.

On to `Nc1nccc(-c2sc3ccc(Cl)cc3c2-c2ccccc2)n1` [Example 17, 4-(5-Chloro-3-phenylbenzo[b]thiophen-2-yl)pyrimidin-2-amine], for which the IC50 in assay [1] (setting [3]) and in assay [2] (setting [4]) was > 5 µM throughout.

As to `Cc1c(-c2ccnc3[nH]ccc23)sc2ccc(Cl)cc12` [Example 6, 4-(5-Chloro-3-methylbenzo[b]thiophen-2-yl)-1H-pyrrolo[2,3-b]pyridine], the IC50 in assay [1] (setting [3]) and in assay [2] (setting [4]) was > 5 µM in each case.

Consider `Cc1c(-c2ccnc(N)n2)sc2ccc(CNC(=O)C3=CCCC3)cc12` [Example 104, Cc1c(sc2ccc(CNC(═O)C3═CCCC3)cc12)-c4ccnc(N)n4], for which the IC50 in assay [1] (setting [3]) and in assay [2] (setting [4]) was < 5 µM in each case.

In the case of `Cc1c(-c2ccnc(N)n2)sc2ccc(Nc3ccc4c(c3)OCO4)cc12` [Example 70, 4-(5-(Benzo[d][1,3]dioxol-5-ylamino)-3-methylbenzo[b]thiophen-2-yl)pyrimidin-2-amine], the IC50 in assay [1] (setting [3]) and in assay [2] (setting [4]) was < 5 µM throughout.

For the molecule `Cc1c(-c2ccnc(N)n2)sc2ccc(Nc3cccc(Oc4ccccc4)c3)cc12` [Example 53, 4-(3-Methyl-5-(3-phenoxyphenylamino)benzo[b]thiophen-2-yl)pyrimidin-2-amine], the 50% inhibitory concentration (IC50) in assay [1] (setting [3]) and in assay [2] (setting [4]) was < 5 µM throughout.

`COc1ccccc1CC(=O)NCc1ccc2sc(-c3ccnc(N)n3)c(C)c2c1` [Example 177, COc1ccccc1CC(═O)NCc2ccc3sc(c(C)c3c2)-c4ccnc(N)n4]: the IC50 was > 5 µM in assay [1] (setting [3]) and < 5 µM in assay [2] (setting [4]).

As for `Cc1c(-c2ccnc(N)n2)sc2ccc(CNC(=O)c3cc(Cl)ccc3[N+](=O)[O-])cc12` [Example 269, Cc1c(sc2ccc(CNC(═O)c3cc(Cl)ccc3[N+]([O−])═O)cc12)-c4ccnc(N)n4], the IC50 in assay [1] (setting [3]) and in assay [2] (setting [4]) was < 5 µM throughout.

With `Cc1ccc(O)c(C(=O)NCc2ccc3sc(-c4ccnc(N)n4)c(C)c3c2)c1` [Example 141, Cc1ccc(O)c(c1)C(═O)NCc2ccc3sc(c(C)c3c2)-c4ccnc(N)n4], the IC50 in assay [1] (setting [3]) is > 5 µM; in assay [2] (setting [4]) it was < 5 µM.

On to `Cc1ccc(SCC(=O)NCc2ccc3sc(-c4ccnc(N)n4)c(C)c3c2)cc1` [Example 223, Cc1ccc(SCC(═O)NCc2ccc3sc(c(C)c3c2)-c4ccnc(N)n4)cc1], for which the values for the IC50 in assay [1] (setting [3]) and in assay [2] (setting [4]) were > 5 µM and < 5 µM, respectively.

For `CCN(CC)CCNc1nccc(Nc2ccc3sc(-c4ccnc(N)n4)c(C)c3c2)n1` [Example 77, N^4-(2-(2-Aminopyrimidin-4-yl)-3-methylbenzo[b]thiophen-5-yl)-N^2-(2-(diethylamino)ethyl)pyrimidine-2,4-diamine], the IC50 in assay [1] (setting [3]) and in assay [2] (setting [4]) was < 5 µM each time.

Consider `Cc1c(-c2ccnc(N)n2)sc2ccc(CNC(=O)Cc3ccc(C(F)(F)F)cc3)cc12` [Example 273, Cc1c(sc2ccc(CNC(═O)Cc3ccc(cc3)C(F)(F)F)cc12)-c4ccnc(N)n4], for which the IC50 in assay [1] (setting [3]) and in assay [2] (setting [4]) was < 5 µM each time.

For `Cc1c(-c2ccnc(N)n2)sc2ccc(CNC(=O)c3cnc(O)c(Cl)c3)cc12` [Example 193, Cc1c(sc2ccc(CNC(═O)c3cnc(O)c(Cl)c3)cc12)-c4ccnc(N)n4], the IC50 in assay [1] (setting [3]) is < 5 µM; in assay [2] (setting [4]), > 5 µM.

As for `Cc1c(-c2ccnc(N)n2)sc2ccc(CNC(=O)c3ccccn3)cc12` [Example 111, Cc1c(sc2ccc(CNC(═O)c3ccccn3)cc12)-c4ccnc(N)n4], the values for the IC50 in assay [1] (setting [3]) and in assay [2] (setting [4]) were > 5 µM and < 5 µM, respectively.

Turning to `Cc1c(-c2ccnc(N)n2)sc2ccc(C(=O)N3CCC(NC(=O)OC(C)(C)C)C3)cc12` (centres unmarked) [Example 22, tert-Butyl 1-(2-(2-aminopyrimidin-4-yl)-3-methylbenzo[b]thiophene-5-carbonyl)pyrrolidin-3-ylcarbamate], the IC50 in assay [1] (setting [3]) and in assay [2] (setting [4]) was > 5 µM in each case.

`Cc1c(-c2ccnc(N)n2)oc2ccc(Br)cc12` [Example 91, 4-(5-Bromo-3-methylbenzofuran-2-yl)pyrimidin-2-amine]: the IC50 in assay [1] (setting [3]) and in assay [2] (setting [4]) was < 5 µM in each case.
